US20110020460A1, “GPR 119 MODULATORS” (Pfizer Inc., priority 2009, published 2011)
Values joined by “and” are separate entries in the source; they are usually repeats but may differ in a detail not shown here. Identical values can stand only once.

Tests used:
human GPR119 [1] = target: T1, human GPR119 (Homo sapiens, UniProt Q8TDV5); assay: GPR119 radioligand binding assay ([3H]-Compound A or [3H]-Compound B, HEK 293FT membranes); conditions: Ki from IC50 by Cheng-Prusoff; one value per run; read-out: Human Binding Ki
T1 construct: host or cells: HEK293-CRE-beta-lactamase
T1 sequence (Q8TDV5 1-335): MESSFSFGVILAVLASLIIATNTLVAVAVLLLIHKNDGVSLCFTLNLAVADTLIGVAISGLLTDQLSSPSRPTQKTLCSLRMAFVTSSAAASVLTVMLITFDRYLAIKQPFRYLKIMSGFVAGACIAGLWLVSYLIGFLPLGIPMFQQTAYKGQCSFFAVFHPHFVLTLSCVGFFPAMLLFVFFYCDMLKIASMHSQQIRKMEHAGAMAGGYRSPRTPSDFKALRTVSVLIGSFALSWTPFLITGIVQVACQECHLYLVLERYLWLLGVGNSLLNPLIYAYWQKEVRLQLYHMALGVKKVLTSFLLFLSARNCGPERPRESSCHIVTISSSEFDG
Procedure: Cells were harvested via centrifugation (3,000×g, 10 minutes), washed once on DPBS (minus Ca++/Mg++), resuspended in 0.25M sucrose, 25 mM HEPES, 0.5 mM EDTA, pH 7.4 and frozen at −80 degrees Celsius.
The frozen cells were thawed on ice and centrifuged at 700×g (1400 rpm) for 10 minutes at 4 degrees Celsius. The cell pellet was resuspended in 20 mL phosphate-buffered saline, and centrifuged at 1400 rpm for 10 minutes. […] Cells were then lysed with 15 gentle strokes of a tight-fitting glass Dounce homogenizer. The homogenate was centrifuged at 1000×g (2200 rpm) for 10 minutes at 4 degrees Celsius. The supernatant was transferred into fresh centrifuge tubes on ice. The cell pellet was resuspended in homogenization buffer, and centrifuged again at 1000×g (2200 rpm) for 10 minutes at 4 degrees Celsius after which the supernatant was removed and the pellet resuspended in homogenization buffer. […] The solution was then centrifuged at 25,000×g (15000 rpm) for 20 minutes at 4 degrees Celsius, the supernatant was discarded, and the pellet was resuspended in fresh homogenization buffer (minus Benzonase and MgCl2). After repeating the 25,000×g centrifugation step, the final membrane pellet was resuspended in homogenization buffer and frozen at −80 degrees Celsius.
2 microL of each dilution was added to appropriate wells of a 96-well plate (each concentration in triplicate).
Membranes expressing GPR119 were thawed and diluted to a final concentration of 20 μg/100 microL per well in Binding Buffer, and 100 microL of diluted membranes were added to each well of 96-well plate.
The plate was incubated for 60 minutes w/shaking at room temperature (approximately 25 degrees Celsius). […] Filters were then washed six times using washing buffer (50 mM Tris-HCl, pH 7.5 kept at 4 degrees Celsius). The filter plates were then air-dyed at room temperature overnight.
IC50 determinations were made from competition curves, analyzed with a proprietary curve fitting program (SIGHTS) and a 4-parameter logistic dose response equation. Ki values were calculated from IC50 values, using the Cheng-Prusoff equation.

human GPR119 [2] = target: T1, human GPR119; assay: beta-lactamase reporter functional assay (hGPR119 HEK293-CRE beta-lactamase cells); assay type: cell-based; conditions: for EC50: read-out: Human B-lactamase Functional EC50; for Emax: read-out: Intrinsic Activity* (B-lactamase)
Procedure: The assay for GPR119 agonists utilizes a cell-based (hGPR119 HEK293-CRE beta-lactamase) reporter construct where agonist activation of human GPR119 is coupled to beta-lactamase production via a cyclic AMP response element (CRE). GPR119 activity is then measured utilizing a FRET-enabled beta-lactamase substrate, CCF4-AM (Live Blazer FRET-B/G Loading kit, Invitrogen cat #K1027). […] After 4 hours the plating medium was removed and replaced with 40 microL of assay medium (Assay medium is plating medium without potassium clavulanate and HIFBS). Varying concentrations of each compound to be tested was then added in a volume of 10 microL (final DMSO≦0.5%) and the cells were incubated for 16 hours at 37 degrees Celsius in a humidified environment containing 5% carbon dioxide. Plates were removed from the incubator and allowed to equilibrate to room temperature for approximately 15 minutes. 10 microL of 6×CCF4/AM working dye solution (prepared according to instructions in the Live Blazer FRET-B/G Loading kit, Invitrogen cat #K1027) was added per well and incubated at room temperature for 2 hours in the dark. Fluorescence was measured on an EnVision fluorimetric plate reader, excitation 405 nm, emission 460 nm/535 nm. EC50 determinations were made from agonist-response curves analyzed with a curve fitting program using a 4-parameter logistic dose-response equation.

human GPR119 [3] = target: T1, human GPR119; assay: cAMP HTRF functional assay (hGPR119 HEK-CRE beta-lactamase cells); assay type: cell-based; conditions: for Emax: read-out: Intrinsic Activity* (cAMP)
Procedure: GPR119 agonist activity was also determined with a cell-based assay utilizing an HTRF (Homogeneous Time-Resolved Fluorescence) cAMP detection kit (cAMP dynamic 2 Assay Kit; Cis Bio cat #62AM4PEC) that measures cAMP levels in the cell. The method is a competitive immunoassay between native cAMP produced by the cells and the cAMP labeled with the dye d2. The tracer binding is visualized by a Mab anti-cAMP labeled with Cryptate. The specific signal (i.e. energy transfer) is inversely proportional to the concentration of cAMP in either standard or sample.
Following 30 minutes incubation at room temperature, 5 microL of labeled d2 cAMP and 5 microL of anti-cAMP antibody (both diluted 1:20 in cell lysis buffer; as described in the manufacturers assay protocol) were added to each well of the assay plate. […] Raw data were converted to nM cAMP by interpolation from a cAMP standard curve (as described in the manufacturer's assay protocol) and EC50 determinations were made from an agonist-response curves analyzed with a curve fitting program using a 4-parameter logistic dose response equation.

[4] = **curve was extrapolated to 100% to calculate an EC50
[5] = hGPR119 HEK-CRE beta-lactamase cells, HTRF cAMP, one value per run
[6] = percent of maximal activity relative to standard GPR119 agonist (WO2005121121) at 10 μM, one value per run
[7] = hGPR119 HEK293-CRE beta-lactamase cells, one value per run
[8] = percent of maximal activity relative to standard GPR119 agonist (WO2005121121) at 10 microM, one value per run

Ki (human GPR119 [1]) | EC50 (human GPR119 [2]; [4]) | Emax (human GPR119 [2]; [4]) [%] | EC50 (human GPR119 [3]; [5]) | Emax (human GPR119 [3]; [6]) [%] | EC50 (human GPR119 [3]; [4]) [µM] | Emax (human GPR119 [3]; [4]) [%] | EC50 (human GPR119 [2]; [7]) | Emax (human GPR119 [2]; [8]) [%] | Intrinsic Activity* (B-lactamase) (human GPR119 [2]; [8]) | Intrinsic Activity* (cAMP) (human GPR119 [3]; [6]) | Intrinsic Activity* (B-lactamase) (human GPR119 [2]; percent of maximal activity relative to standard GPR119 agonist (WO2005121121) at 10 microM, one value per run, listed as Exmaple 28) [%] | Structure (SMILES)
1.7 µM | 5.2 µM | 100 | > 10 µM | 31 | – | – | – | – | – | – | – | Cc1ccccc1OCc1cnn(C2CCN(C(=O)OC(C)C)CC2)c1C#N [Example 12, Isopropyl 4-{5-cyano-4-[(2-methylphenoxy)methyl]-1H-pyrazol-1-yl}piperidine-1-carboxylate]
> 6.1 µM | 4 µM and 4.81 µM | 100 | 4.55 µM | 99 | 4.48 | 100 | – | – | – | – | – | CC(C)OC(=O)N1CCC(n2ncc(COc3ccc(-c4nnn[nH]4)cc3F)c2C#N)CC1 [Example 19, Isopropyl 4-(5-cyano-4-((2-fluoro-4-(1H-tetrazol-5-yl)phenoxy)methyl)-1H-pyrazol-1-yl)piperidine-1-carboxylate and Isopropyl 4-(5-cyano-4-((2-fluoro-4-(2H-tetrazol-5-yl)phenoxy)methyl)-1H-pyrazol-1-yl)piperidine-1-carboxylate]
0.041 µM and 0.144 µM | 0.131 µM | 100 | 0.059 µM and 0.09 µM | 123 | – | – | 0.061 µM | 107 | – | – | – | CC(C)OC(=O)N1CCC(n2ncc(COc3ccc(-c4nnnn4C)cc3F)c2C#N)CC1 [Example 20, Isopropyl 4-(5-cyano-4-((2-fluoro-4-(1-methyl-1H-tetrazol-5-yl)phenoxy)methyl)-1H-pyrazol-1-yl)piperidine-1-carboxylate]
0.058 µM and 0.128 µM | – | – | 0.044 µM and 0.032 µM and 0.057 µM | 33 | – | – | 0.688 µM and 0.201 µM | 100 | 96% | 31% and 34% | – | CC(C)OC(=O)N1CCC(n2ncc(COc3ccc(-c4nnn(C)n4)cc3F)c2C#N)CC1 [Example 21, Isopropyl 4-(5-cyano-4-((2-fluoro-4-(2-methyl-2H-tetrazol-5-yl)phenoxy)methyl)-1H-pyrazol-1-yl)piperidine-1-carboxylate]
1.64 µM and 0.528 µM | – | – | 0.394 µM | 27 | – | – | 1.87 µM and 3.4 µM | 102 | 100% | – | – | CC(C)OC(=O)N1CCC(n2ncc(C(C)Oc3ccc(S(C)(=O)=O)cc3F)c2C#N)CC1 (stereo not drawn) [Example 27, Isopropyl 4-(5-cyano-4-{1-[2-fluoro-4-(methylsulfonyl)phenoxy]ethyl}-1H-pyrazol-1-yl)piperidine-1-carboxylate]
> 6.1 µM | – | – | > 10 µM | – | – | – | 0.005 µM and 0.003 µM | 27 | – | – | 22 | Cc1ncccc1OC(C)c1cnn(C2CCN(C(=O)OC(C)C)CC2)c1C#N (stereo not drawn) [Example 28, Isopropyl 4-(5-cyano-4-{1-[(2-methylpyridin-3-yl)oxy]ethyl}-1H-pyrazol-1-yl)piperidine-1-carboxylate]
1.55 µM and 3.38 µM | 3.01 µM | 100 | – | 27 | – | – | – | – | – | 33% | – | CC(C)OC(=O)N1CCC(n2ncc(CC(C)c3ccc(S(C)(=O)=O)cc3F)c2C#N)CC1 (stereo not drawn) [Example 29, Isopropyl 4-(5-cyano-4-{2-[2-fluoro-4-(methylsulfonyl)phenyl]propyl}-1H-pyrazol-1-yl)piperidine-1-carboxylate]
2.02 µM | – | – | 0.256 µM and 0.245 µM | 68 | – | – | 0.136 µM and 0.166 µM | – | 113% and 76% | 60% | – | Cc1ncccc1OCc1cnn(C2CCN(C(=O)OC3(C)CC3)CC2)c1C#N [Example 30, 1-Methylcyclopropyl 4-(5-cyano-4-{[(2-methylpyridin-3-yl)oxy]methyl}-1H-pyrazol-1-yl)piperidine-1-carboxylate]
0.514 µM | – | – | 0.066 µM and 0.064 µM and 0.058 µM | 66 | – | – | 0.281 µM | 86 | – | 78% and 60% | – | CC(C)OC(=O)N1CCC(n2ncc(COc3c(F)ccc(F)c3F)c2C#N)CC1 [Example 32, Isopropyl 4-{5-cyano-4-[(2,3,6-trifluorophenoxy)methyl]-1H-pyrazol-1-yl}piperidine-1-carboxylate]
0.087 µM | – | – | 0.055 µM and 0.07 µM | 94 | – | – | 0.27 µM | 102 | – | 78% | – | CC(C)OC(=O)N1CCC(n2ncc(COc3ccc(-c4cncn4C)cc3F)c2C#N)CC1 [Example 34, Isopropyl 4-(5-cyano-4-{[2-fluoro-4-(1-methyl-1H-imidazol-5-yl)phenoxy]methyl}-1H-pyrazol-1-yl)piperidine-1-carboxylate]
0.031 µM and 0.029 µM | – | – | 0.018 µM and 0.031 µM | 76 | – | – | 0.076 µM and 0.125 µM | 83 | 101% | 66% | – | Cc1nc(-n2cncn2)ccc1OCc1cnn(C2CCN(C(=O)OC(C)C)CC2)c1C#N [Example 35, Isopropyl 4-[5-cyano-4-({[2-methyl-6-(1H-1,2,4-triazol-1-yl)pyridin-3-yl]oxy}methyl)-1H-pyrazol-1-yl]piperidine-1-carboxylate]
0.521 µM and 1.45 µM | – | – | 0.281 µM and 0.256 µM | – | – | – | 0.848 µM | 100 | – | 51% and 76% | – | Cc1nc(-n2cncn2)ccc1NCc1cnn(C2CCN(C(=O)OC(C)C)CC2)c1C#N [Example 36, Isopropyl 4-[5-cyano-4-({[2-methyl-6-(1H-1,2,4-triazol-1-yl)pyridin-3-yl]amino}methyl)-1H-pyrazol-1-yl]piperidine-1-carboxylate]
